NC(=O)N/N=C/c1ccc([N+](=O)[O-])o1
solubility (mole fraction)
Conditions | 278.15 K | 283.15 K | 288.15 K | 293.15 K | 298.15 K | 303.15 K | 308.15 K | 313.15 K | 318.15 K | 323.15 K
in DMSO | – | – | – | 0.0448 | 0.0469 | 0.0493 | 0.053 | 0.0577 | 0.0636 | 0.0709
in NMP | 0.0317 | 0.0354 | 0.0396 | 0.0457 | 0.0522 | 0.0591 | 0.0662 | 0.075 | 0.0853 | 0.0985
in ethanol | 6.72e-05 | 8.38e-05 | 0.000102 | 0.000123 | 0.000149 | 0.000178 | 0.000213 | 0.000258 | 0.000303 | 0.000364
in isopropanol | 6.89e-05 | 8.99e-05 | 0.000117 | 0.000138 | 0.000175 | 0.000223 | 0.00027 | 0.000331 | 0.00039 | 0.000484
in water | 1.32e-05 | 1.66e-05 | 1.96e-05 | 2.46e-05 | 2.98e-05 | 3.66e-05 | 4.5e-05 | 5.75e-05 | 6.84e-05 | 8.47e-05

Reference: BigSolDB 2.1
